Values quoted from earlier work in patent US20190167598A1, “A NOVEL TREATMENT REGIMEN INVOLVING SAPROPTERIN DIHYDROCHLORIDE” (DIPHARMA S.A., priority 2016, published 2019).

Legend:
[1] = in vivo
[2] = neutral or basic conditions

sapropterin elimination half-life time [1]: about 4 h
oxidation into dihydrobiopterin [2]: readily oxidized
Structure (SMILES): C[C@H](O)[C@H](O)[C@H]1CNc2[nH]c(N)nc(=O)c2N1.Cl.Cl [sapropterin, (6R)-2-amino-6-[(1R,2S)-1,2-dihydroxypropyl]-5,6,7,8-tetrahydropteridin-4(1H)-one dihydrochloride]
